The values below come from US5561228A, “Macrocyclic immunomodulators” (Abbott Laboratories, priority 1994, dated 1996).

pIC50: −log10 of the molar value. Bounds are passed on as bounds.

For this experiment, the system named is human mixed lymphocyte reaction (MLR). The experiment can be described thus: human mixed lymphocyte reaction (MLR) assay. Type of experiment: cell-based. The settings on record: immunosuppressant activity, Table 1. On the procedure:
The immunosuppressant activity of the compounds of the present invention was determined using the human mixed lymphocyte reaction (MLR) assay described by Kino, T. et al. in Transplantation Proceedings, XIX(5):36-39,Suppl. 6 (1987).

With `CC[C@@H]1/C=C(\C)C[C@H](C)C[C@H](OC)[C@H]2O[C@@](O)(C(=O)C(=O)N3CCCC[C@H]3C(=O)O[C@H](/C(C)=C/[C@@H](CC=NOCC(=O)O)CCC#N)[C@H](C)[C@@H](O)CC1=O)[C@H](C)C[C@@H]2OC` [Example 421], the pIC50 is over 6.00.
Take `CC[C@@H]1/C=C(\C)C[C@H](C)C[C@H](OC)[C@H]2O[C@@](O)(C(=O)C(=O)N3CCCC[C@H]3C(=O)O[C@H](/C(C)=C/[C@@H](CC=NO)CCC#N)[C@H](C)[C@@H](O)CC1=O)[C@H](C)C[C@@H]2OC` [Example 419]: the negative logarithm of the IC50 (pIC50) was over 6.00.
Compound `CC[C@@H]1/C=C(\C)C[C@H](C)C[C@H](OC)[C@H]2O[C@@](O)(C(=O)C(=O)N3CCCC[C@H]3C(=O)O[C@H](/C(C)=C/[C@@H](CC=NN(C)C)CCC#N)[C@H](C)[C@@H](O)CC1=O)[C@H](C)C[C@@H]2OC` [Example 417] had a pIC50 of over 6.00.
As for `CC[C@@H]1/C=C(\C)C[C@H](C)C[C@H](OC)[C@H]2O[C@@](O)(C(=O)C(=O)N3CCCC[C@H]3C(=O)O[C@H](/C(C)=C/[C@@H](CCO)CCC#N)[C@H](C)[C@@H](O)CC1=O)[C@H](C)C[C@@H]2OC` [Example 425], the figure is over 6.00.
